In ChEMBL document CHEMBL1201862, “PubChem BioAssay data set” (2004):
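Interpolation was linear, between the two tested concentrations surrounding the appropriate level; five concentrations were tested over 48 hours in 96-well plates. At the GI50, growth is halved.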 Activity calls are given as the source filed them. Rule as the data show it: active = GI50 up to about 1.1 µM and inactive = higher.

What was measured:
Test in all cases: DTP human tumour cell line panel, 48 h
[1] = test system: MDA-MB-231
[2] = test system: HOP-62
[3] = test system: CCRF-CEM
[4] = test system: OVCAR-3
[5] = test system: MDA-N
[6] = test system: Hs-578T
[7] = test system: HCT-116
[8] = test system: CAKI-1
[9] = test system: PC-3
[10] = test system: NCI-H23
[11] = test system: NCI-H226
[12] = test system: COLO 205
[13] = test system: OVCAR-5
[14] = test system: EKVX
[15] = test system: HOP-92
[16] = test system: SF-295
[17] = test system: Malme-3M
[18] = test system: UACC-257
[19] = test system: UACC-62
[20] = test system: M14
[21] = test system: NCI-H460
[22] = test system: A549
[23] = test system: NCI/ADR-RES
[24] = test system: IGROV-1
[25] = test system: OVCAR-4
[26] = test system: HL-60
[27] = test system: HCT-15
[28] = test system: ACHN
[29] = test system: RXF 393
[30] = test system: K562
[31] = test system: T47D
[32] = test system: NCI-H522
[33] = test system: SNB-19
[34] = test system: SW-620
[35] = test system: A498
[36] = test system: LOX IMVI
[37] = test system: HT-29
[38] = test system: SN12C
[39] = test system: U-251
[40] = test system: SK-MEL-28
[41] = test system: SK-MEL-2
[42] = test system: DU-145
[43] = test system: SF-539
[44] = test system: RPMI-8226
[45] = test system: SR
[46] = test system: TK-10
[47] = test system: SK-OV-3
[48] = test system: SF-268
[49] = test system: OVCAR-8
[50] = test system: UO-31
[51] = test system: 786-0
[52] = test system: MDA-MB-435
[53] = test system: KM12
[54] = test system: MOLT-4
[55] = test system: HCC 2998
[56] = test system: SK-MEL-5

## N#CC1=C(N2CCCC2)NC(=O)CC1=O
[1]
  GI50: > 100 µM (inactive)
[2]
  GI50: > 100 µM (inactive)
[3]
  GI50: > 100 µM (inactive)
[4]
  GI50: > 100 µM (inactive)
[5]
  GI50: > 100 µM (inactive)
[6]
  GI50: > 100 µM (inactive)
[7]
  GI50: > 100 µM (inactive)
[8]
  GI50: > 100 µM (inactive)
[9]
  GI50: > 100 µM (inactive)
[10]
  GI50: > 100 µM (inactive)
[11]
  GI50: > 100 µM (inactive)
[12]
  GI50: > 100 µM (inactive)
[13]
  GI50: > 100 µM (inactive)
[14]
  GI50: > 100 µM (inactive)
[15]
  GI50: > 100 µM (inactive)
[16]
  GI50: > 100 µM (inactive)
[17]
  GI50: > 100 µM (inactive)
[18]
  GI50: > 100 µM (inactive)
[19]
  GI50: > 100 µM (inactive)
[20]
  GI50: > 100 µM (inactive)
[21]
  GI50: > 100 µM (inactive)
[22]
  GI50: > 100 µM (inactive)
[23]
  GI50: > 100 µM (inactive)
[24]
  GI50: > 100 µM (inactive)
[25]
  GI50: > 100 µM (inactive)
[26]
  GI50: > 100 µM (inactive)
[27]
  GI50: > 100 µM
[28]
  GI50: > 100 µM (inactive)
[29]
  GI50: > 100 µM (inactive)
[30]
  GI50: > 100 µM (inactive)
[31]
  GI50: 74 µM (inactive)
[32]
  GI50: > 100 µM (inactive)
[33]
  GI50: > 100 µM (inactive)
[34]
  GI50: > 100 µM (inactive)
[35]
  GI50: > 100 µM (inactive)
[36]
  GI50: > 100 µM (inactive)
[37]
  GI50: > 100 µM (inactive)
[38]
  GI50: > 100 µM (inactive)
[39]
  GI50: > 100 µM (inactive)
[40]
  GI50: > 100 µM (inactive)
[41]
  GI50: > 100 µM (inactive)
[42]
  GI50: > 100 µM (inactive)
[43]
  GI50: > 100 µM (inactive)
[44]
  GI50: > 100 µM (inactive)
[45]
  GI50: > 100 µM (inactive)
[46]
  GI50: > 100 µM (inactive)
[47]
  GI50: > 100 µM (inactive)
[48]
  GI50: > 100 µM (inactive)
[49]
  GI50: > 100 µM (inactive)
[50]
  GI50: > 100 µM (inactive)
[51]
  GI50: > 100 µM (inactive)
[52]
  GI50: > 100 µM (inactive)
[53]
  GI50: > 100 µM (inactive)
[54]
  GI50: > 100 µM (inactive)
[55]
  GI50: > 100 µM (inactive)
[56]
  GI50: > 100 µM (inactive)
